Measured values as given in patent US20190367516A1 (Bayer Pharma Aktiengesellschaft, priority 2015, published 2019).
Like-named read-outs stand apart in the source and are kept apart here.

Target: T1, human M2 receptor (Homo sapiens, UniProt P08172)
T1 sequence (P08172 1-466): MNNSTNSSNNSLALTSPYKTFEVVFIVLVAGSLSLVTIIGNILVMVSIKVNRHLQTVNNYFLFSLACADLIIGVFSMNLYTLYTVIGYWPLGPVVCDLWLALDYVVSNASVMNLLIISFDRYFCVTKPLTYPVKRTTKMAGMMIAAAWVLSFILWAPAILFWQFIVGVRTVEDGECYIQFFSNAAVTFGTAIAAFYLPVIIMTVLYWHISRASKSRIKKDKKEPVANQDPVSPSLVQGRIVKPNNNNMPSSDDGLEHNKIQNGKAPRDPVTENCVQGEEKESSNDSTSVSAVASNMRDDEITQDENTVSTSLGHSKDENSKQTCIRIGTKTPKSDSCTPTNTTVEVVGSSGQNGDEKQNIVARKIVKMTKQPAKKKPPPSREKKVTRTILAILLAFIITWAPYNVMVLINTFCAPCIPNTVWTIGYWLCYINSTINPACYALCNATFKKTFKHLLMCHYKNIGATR

[1] = Receptor activity EC50, allosteric potency at EC20 acetylcholine, M2-GIRK1/4 reporter cells, in some cases mean of two or more determinations
[2] = read-out: Efficiency, boosting of the acetylcholine effect at EC20 acetylcholine concentration, M2-GIRK1/4 reporter cells
[3] = Receptor activity EC50, M2-GIRK1/4 activation test, acetylcholine at EC20, allosteric potency, in some cases mean values from two or more determinations

Structure (SMILES)	EC50 [1] [nM]	Emax [2] [%]	EC50 [3] [nM]	other results
COC(=O)N1CCN(c2ccc3c(=O)c(C(=O)NC45CC(C4)C5)cn(-c4c(F)cc(F)cc4F)c3n2)CC1 [Example 633, Methyl 4-[6-(bicyclo[1.1.1]pent-1-ylcarbamoyl)-5-oxo-8-(2,4,6-trifluorophenyl)-5,8-dihydro-1,8-naphthyridin-2-yl]piperazine-1-carboxylate]	52	93.8		
CC(C)(NC(=O)c1cn(-c2c(F)cc(F)cc2F)c2nc(N3CCNC3=O)ccc2c1=O)C(F)F [Example 614, N-(1,1-Difluoro-2-methylpropan-2-yl)-4-oxo-7-(2-oxoimidazolidin-1-yl)-1-(2,4,6-trifluorophenyl)-1,4-dihydro-1,8-naphthyridine-3-carboxamide]	36	94.5		
O=C(NC(c1ccccc1Cl)C(F)(F)F)c1cn(-c2ccccc2F)c2nc(N3CCC(O)C3=O)ccc2c1=O (single isomer, unassigned) [Example 290]			312	
CCC(NC(=O)c1cn(-c2ccc(F)cc2F)c2nc(N3C[C@@H](O)CC3=O)ccc2c1=O)C(F)(F)C(F)(F)F (single isomer, unassigned) [Example 558]	22			Efficiency (boosting of the acetylcholine effect at EC20 acetylcholine concentration, M2-GIRK1/4 reporter cells): 100.0%
CC(C)(NC(=O)c1cn(-c2c(F)cc(F)cc2F)c2nc(N3C[C@@H](O)CC3=O)ccc2c1=O)C1CC1 [Example 481, N-(2-Cyclopropylpropan-2-yl)-7-[(4S)-4-hydroxy-2-oxopyrrolidin-1-yl]-4-oxo-1-(2,4,6-trifluorophenyl)-1,4-dihydro-1,8-naphthyridine-3-carboxamide]	10	100		
CC(C)(CC(F)(F)F)NC(=O)c1cn(-c2c(F)cc(F)cc2Cl)c2nc(N3C[C@@H](O)CC3=O)ccc2c1=O [Example 395, 1-(2-Chloro-4,6-difluorophenyl)-7-[(4S)-4-hydroxy-2-oxopyrrolidin-1-yl]-4-oxo-N-(4,4,4-trifluoro-2-methylbutan-2-yl)-1,4-dihydro-1,8-naphthyridine-3-carboxamide]	7	100		
CC[C@@H](NC(=O)c1cn(-c2c(F)cccc2F)c2nc(N3CC(CO)OC3=O)ccc2c1=O)C(F)(F)F (mixture of isomers) [Example 260, rac-1-(2,6-Difluorophenyl)-7-[5-(hydroxymethyl)-2-oxo-1,3-oxazolidin-3-yl]-4-oxo-N-[(2R)-1,1,1-trifluorobutan-2-yl]-1,4-dihydro-1,8-naphthyridine-3-carboxamide]			280	
O=C(NC(c1c(F)cccc1F)C(F)(F)F)c1cn(-c2ccc(F)cc2F)c2nc(N3CC[C@@H](O)C3=O)ccc2c1=O (stereo partly drawn) [Example 300, 1-(2,4-Difluorophenyl)-N-[1-(2,6-difluorophenyl)-2,2,2-trifluoroethyl]-7-[(3R)-3-hydroxy-2-oxopyrrolidin-1-yl]-4-oxo-1,4-dihydro-1,8-naphthyridine-3-carboxamide]			54	
CN(C)c1ccc2c(=O)c(C(=O)NC(c3ccc(F)cc3)C(F)(F)F)cn(-c3ccc(F)cc3F)c2n1 (racemic) [Example 139, rac-1-(2,4-Difluorophenyl)-7-(dimethylamino)-4-oxo-N-[2,2,2-trifluoro-1-(4-fluorophenyl)ethyl]-1,4-dihydro-1,8-naphthyridine-3-carboxamide]			65	
C[C@@H]1C[C@](C)(O)CN1c1ccc2c(=O)c(C(=O)N[C@@H](C)C(F)(F)F)cn(-c3c(F)cc(F)cc3Cl)c2n1 [Example 390, 1-(2-Chloro-4,6-difluorophenyl)-7-[(2R,4S)-4-hydroxy-2,4-dimethylpyrrolidin-1-yl]-4-oxo-N-[(2S)-1,1,1-trifluoropropan-2-yl]-1,4-dihydro-1,8-naphthyridine-3-carboxamide]			14	
O=C(N[C@@H](C1CC1)C(F)(F)F)c1cn(-c2c(F)cc(F)cc2F)c2nc(N3C[C@H](O)[C@@H](O)C3)ccc2c1=O [Example 642, N-[(1 S)-1-Cyclopropyl-2,2,2-trifluoroethyl]-7-[(3S,4S)-3,4-dihydroxypyrrolidin-1-yl]-4-oxo-1-(2,4,6-trifluorophenyl)-1,4-dihydro-1,8-naphthyridine-3-carboxamide]	72			Emax (read-out: Efficiency): 100%
O=C(NC(c1ccc(F)cc1)C(F)(F)F)c1cn(-c2ccc(F)cc2F)c2nc(N3C[C@@H](O)CC3=O)ccc2c1=O (mixture of isomers) [Example 273, 1-(2,4-Difluorophenyl)-7-[(4S)-4-hydroxy-2-oxopyrrolidin-1-yl]-4-oxo-N-[2,2,2-trifluoro-1-(4-fluorophenyl)ethyl]-1,4-dihydro-1,8-naphthyridine-3-carboxamide]			44	
O=C(N[C@H](C1CC1)C(F)(F)F)c1cn(-c2c(Cl)cc(F)cc2Cl)c2nc(N3CCNC3=O)ccc2c1=O [Example 647, N-[(1R)-1-Cyclopropyl-2,2,2-trifluoroethyl]-1-(2,6-dichloro-4-fluorophenyl)-4-oxo-7-(2-oxoimidazolidin-1-yl)-1,4-dihydro-1,8-naphthyridine-3-carboxamide]		92		
CC(C)C(NC(=O)c1cn(-c2ccc(F)cc2F)c2nc(N(C)C)ccc2c1=O)C(F)(F)F (racemic) [Example 150, rac-1-(2,4-Difluorophenyl)-7-(dimethylamino)-4-oxo-N-(1,1,1-trifluoro-3-methylbutan-2-yl)-1,4-dihydro-1,8-naphthyridine-3-carboxamide]			72	
O=C(NC12CC3CC(CC(C3)C1)C2)c1cn(-c2ccc(F)cc2F)c2nc(N3CC(F)(F)CCC3=O)ccc2c1=O [Example 171]			30	
CC(C)CC(NC(=O)c1cn(-c2ccc(F)cc2F)c2nc(NCC(F)(F)F)ccc2c1=O)C(F)(F)F (racemic) [Example 95, rac-1-(2,4-Difluorophenyl)-4-oxo-7-[(2,2,2-trifluoroethyl)amino]-N-[1,1,1-trifluoro-4-methylpentan-2-yl]-1,4-dihydro-1,8-naphthyridine-3-carboxamide]			144	
O=C(NC12CC3CC(CC(C3)C1)C2)c1cn(-c2ccc(F)cc2F)c2nc(N3CCCC(F)(F)C3)ccc2c1=O [Example 1, 1-(2,4-Difluorophenyl)-7-(3,3-difluoropiperidin-1-yl)-4-oxo-N-(tricyclo[3.3.1.1^3,7]dec-1-yl)-1,4-dihydro-1,8-naphthyridine-3-carboxamide]			14	
CC(C)C[C@@H](NC(=O)c1cn(-c2c(F)cc(F)cc2F)c2nc(N3C[C@@H](O)CC3=O)ccc2c1=O)C(F)(F)F [Example 658, 7-[(4S)-4-Hydroxy-2-oxopyrrolidin-1-yl]-4-oxo-N-[(2R)-1,1,1-trifluoro-4-methylpentan-2-yl]-1-(2,4,6-trifluorophenyl)-1,4-dihydro-1,8-naphthyridine-3-carboxamide]	6	100		
CC[C@H](NC(=O)c1cn(-c2c(F)cc(F)cc2F)c2nc(N3CC4(COC4)C3)ccc2c1=O)C(F)(F)F [Example 498]	60	83.5		
CC1(O)CCCN(c2ccc3c(=O)c(C(=O)N[C@@H](C4CC4)C(F)(F)F)cn(-c4c(F)cc(F)cc4F)c3n2)C1 (stereo partly shown) [Example 665, N-[(1 S)-1-Cyclopropyl-2,2,2-trifluoroethyl]-7-[3-hydroxy-3-methylpiperidin-1-yl]-4-oxo-1-(2,4,6-trifluorophenyl)-1,4-dihydro-1,8-naphthyridine-3-carboxamide]	73	92.5		
O=C(NC12CC3CC(CC(C3)C1)C2)c1cn(-c2ccc(F)cc2F)c2nc(N3CCOCC3)ccc2c1=O [Example 136, 1-(2,4-Difluorophenyl)-7-(morpholin-4-yl)-4-oxo-N-(tricyclo[3.3.1.1^3,7]dec-1-yl)-1,4-dihydro-1,8-naphthyridine-3-carboxamide]			24	
O=C1CN(c2ccc3c(=O)c(C(=O)NC45CC6CC(CC(C6)C4)C5)cn(-c4ccc(F)cc4F)c3n2)CCN1 [Example 18, 1-(2,4-Difluorophenyl)-4-oxo-7-(3-oxopiperazin-1-yl)-N-(tricyclo[3.3.1.1^3,7]dec-1-yl)-1,4-dihydro-1,8-naphthyridine-3-carboxamide]			117	
COC(=O)[C@H]1CN(c2ccc3c(=O)c(C(=O)N[C@@H](C4CC4)C(F)(F)F)cn(-c4c(F)cc(F)cc4F)c3n2)C(=O)O1 [Example 669, Methyl (5R)-3-[6-{[(1S)-1-cyclopropyl-2,2,2-trifluoroethyl]carbamoyl}-5-oxo-8-(2,4,6-trifluorophenyl)-5,8-dihydro-1,8-naphthyridin-2-yl]-2-oxo-1,3-oxazolidine-5-carboxylate]	106	84.9		
CC(NC(=O)c1cn(-c2c(F)cc(F)cc2F)c2nc(N3C[C@@H](O)CC3=O)ccc2c1=O)(C1CC1)C(F)(F)F (single isomer, unassigned) [Example 509]	7	88		
CCC(NC(=O)c1cn(-c2c(F)cc(F)cc2F)c2nc(N3C[C@@H](O)[C@H](O)C3)ccc2c1=O)C(F)(F)C(F)(F)F (mixture of isomers) [Example 522, 7-[(3R,4R)-3,4-Dihydroxypyrrolidin-1-yl]-4-oxo-N-[1,1,1,2,2-pentauoropentan-3-yl]-1-(2,4,6-trifluorophenyl)-1,4-dihydro-1,8-naphthyridine-3-carboxamide]				Emax (read-out: Efficiency): 92.8%
CCC(NC(=O)c1cn(-c2ccc(F)cc2F)c2nc(N(C)CC(F)(F)F)ccc2c1=O)C(F)(F)F (racemic) [Example 100]			143	
